Measurements published in patent EP3241555A1, “USE OF PYROPHOSPHATE ION ANALOGUES FOR THE TREATMENT OF HPV INFECTION” (Agencia Pública Empresarial Sanitaria Costa Del Sol, priority 2014, dated 2016).
Several values for one entry are separate records, joined by “and”; a condition that tells them apart may be missing. Identical values can stand only once.

What was measured:
[1] = tested on: HPV; details: used topically, master formulation as a cream; different types of viral warts; cited from earlier work
[2] = tested on: HPV; experiment: Expanded trial in 28 patients with warts treated with topical foscarnet; type: in vivo, human
Procedure: A total of 28 patients, from which 64.3% are female patients and 35.7% male patients to whom treatment was administered, were studied. The mean age was […] (6-64) and with a median age of 16 years.
It is important to point out that 96.4% of the patients had received prior treatments without any results, where the most common treatments are cryotherapy involving 78.6% of said patients and topical keratolytic drugs involving 67.9% of them.
Most of the patients (71.4%) applied the treatment 2 times a day and in 78.6% of the cases, the area of application was banded for the night. The rest of the patients applied the treatment 1 or 3 times/day.
The mean duration of the treatment was 11.57 (3-28) weeks.

[3] = target: HIV reverse transcriptase (HIV, RT) (Human immunodeficiency virus type 1 group M subtype B, UniProt P04585); details: read-out: ID50; cited from earlier work

## Nc1ccn(C[C@@H](CO)OCP(=O)(O)O)c(=O)n1 [cidofovir]
[1]
  cure rates: high cure rates

## O=C(O)P(=O)(O)O [foscarnet, phosphonoformic acid]
[2]; 28 patients
  Adverse effects to treatment: No, Percentage: 89.3%
  Adverse effects to treatment: No, Percentage valid: 89.3%
  Adverse effects to treatment: Yes, Percentage valid: 10.7%
  Response to treatment: Complete, Percentage: 39.3%
  Response to treatment: Complete, Percentage valid: 39.3%
  Response to treatment: No, Percentage: 28.6%
  Response to treatment: No, Percentage valid: 28.6%
  Response to treatment: Partial, Percentage: 32.1%
  Response to treatment: Partial, Percentage valid: 32.1%
[2]; 28 patients, full plus partial response
  percentage of response: 71.4%
[2]; 28 patients, very mild localized adverse effects (erythema or slight irritation/itch)
  Adverse effects to treatment: Yes, Percentage: 10.7%
[2]; N valid 28
  Time effect starts (weeks), Maximum: 16 weeks
  Time effect starts (weeks), Mean: 5.25 (± 4.98) weeks and 5.25 weeks
  Time effect starts (weeks), Median: 4.00 weeks
  Time effect starts (weeks), Minimum: 0 weeks
[2]; number of patients out of 28
  Adverse effects to treatment: No, Frequency: 25
  Response to treatment: Complete, Frequency: 11
  Response to treatment: No, Frequency: 8
  Response to treatment: Partial, Frequency: 9
[2]; number of patients out of 28, 1 lost
  Recurrence: No, Frequency: 27
[2]; number of patients out of 28, very mild localized adverse effects (erythema or slight irritation/itch)
  Adverse effects to treatment: Yes, Frequency: 3
[2]; of 27 valid patients
  Recurrence: No, Percentage valid: 100.0%
[2]; of 28 patients, 1 lost
  Recurrence: No, Percentage: 96.4%

## O=C(O)P(=O)(O)O [Trisodium phosphonoformate]
[3]
  IC50: ~1000 nM
